{"source": "patent US7510825B2", "about": "“Kits and methods for detection of apoptotic cells” (NST NeuroSurvival Technologies Ltd, priority 2000, dated 2009)", "test_system": "Jurkat cells (T-cell leukemia)", "assay": "Binding of DDC and PI to Jurkat cells treated with CD95, confocal microscopy", "type": "cell-based, human", "details": "CD95 for 180 minutes; confocal microscope", "description": "For microscopic analysis the concentration of cells should be within 1-2×10^7/ml. […] If fixation is needed, it should be performed after DDC staining. • 1. Adjusting the cells to 1-2×10^7/ml in buffer. • 2. Transferring 96 μl from the cell suspension to an eppendorf and staining the cells by adding 4 μl from the DDC solution. Incubating for 10-40 minutes at RT protected from light. • 3. A double labeling could be conducted with PI, if desired. In such a case, 1 μl is added from the PI solution. • 4, Placing the cell suspension on a glass slide. Covering the cells with a glass coverslip. Alternatively, for analyzing adherent cells, cells may grow directly on coverslip. Staining the cells by incubation with DDC (4 μl of DDC/96 μl buffer reaction) or 10-40 minutes and PI (1 μl). […] Observing the cells under fluorescent or confocal microscope equipped with the appropriate UV filter (excitation at 360-370 nm, band pass, and emission at 420 nm, barrier filter. Using a Triple filter (Hoechst/FITC/Texas Red) allows concomitant observation of both DDC and PI. Quantitative Assay for DDC Accumulation using Fluorescene Spectroscopy\nJurkat cells (T-cell leukemia) were treated with CD95 for 180 minutes and incubated with DDC followed by incubation with Propidium Iodide (PI) as detailed in DDC protocols IIIC. The cells were analyzed under fluorescent confocal microscope using a UV filter. […]"}
{"smiles": "CC[N+](C)(CC)CCC[n+]1c(-c2ccccc2)c2cc(N)ccc2c2ccc(N)cc21.[I-].[I-]", "note": "[PI, Propidium Iodide, reference compound]", "values": [{"measurement": "cellular staining pattern in apoptotic cells", "result": "Nuclear staining by PI can be seen only in late apoptotic cells"}]}
